These results are taken from patent US20210145830A1, “MATERIALS AND METHODS FOR TREATING CANCER” (Mayo Foundation for Medical Education and Research, priority 2018, published 2021).

One experiment concerns CART19 and UTDs. Briefly: Ex vivo T cell expansion and CART generation with TP0903. The experiment is classed as cell-based. As to conditions: low dose TP0903 during ex vivo manufacture. The source says:
FIG. 14 contains graphs showing CART19 or untransduced T cell expansion with or without varied concentrations of TP0903. Low dose TP0903 enhanced the expansion of CART19 and UTDs during ex vivo manufacture of CARTs.
The murine anti-CD19 chimeric antigen receptor (single chain variable fragment derived from clone FMC63, CD8 hinge, 4-1BB costimulatory domain and CD3 zeta signaling domain) was generated de novo and cloned into a third generation lentivirus. Normal donor T cells were […] selected using negative selection Kit (Stem Cell), and expanded in vitro using anti-CD3/CD28 Dynabeads (Invitrogen, Life Technologies, Grand Island, N.Y., USA, added on the first day of culture). T cells were transduced with lentiviral supernatant one day following stimulation at a multiplicity of infection (MOI) of 3. The anti-CD3/CD28 Dynabeads were removed on day 6 and T cells were grown in T cell media (X-vivo 15 media, human serum 5%, penicillin, streptomycin and glutamax). CART cells were then cryopreserved on day 8 for future experiments. Prior to all experiments, T cells were thawed and rested overnight at 37° C.
CART cells were generated with increasing doses of TP0903. T cells were isolated (negative selection, STEM CELL kit) and stimulated with CD3/CD28 beads on day 0. On day 1, T cells were transduced with CAR19 lentivirus at MOI of 3. […]

The subject of a further experiment is Naïve T cells. In words: Naïve T cell proliferation assay (PMA/Ionomycin). The experiment is classed as cell-based. As to conditions: PMA 5 ng/ml + Ionomycin 0.1 μg/ml; TP0903 10-65 nM; 3 days. On the procedure:
FIG. 21A-E. TP0903 modulates naïve T cells function upon stimulation of PMA/Ionomycin in vitro. A. Naïve T cell proliferation assay in the presence of TP0903. Naïve T cells were stimulated with 5 ng/ml of PMA and 0.1 μg/ml of Ionomycin in the absence or in the increasing dose of TP0903 (10-65 nM) for 3 days. […] B. At the end of the expansion on day 3, T cells were stained with inhibitory receptors. […] C. Naïve T cell degranulation assay and cytokine production in the presence of TP0903. Naïve T cells were stimulated with 50 ng/ml of PMA and 1 μg/ml of Ionomycin for 4 hours in the presence of increasing doses of TP0903 (10-65 nM). […] D. Western blot analysis of p-LCK and GATA-3 inhibition by TP0903 in naïve T cells. Naïve T cells were stimulated with 5 ng/ml of PMA and 0.1 ug/ml of Ionomycin in the absence (DMSO) or in the increasing dose of TP0903 (10-65 nM) for 24 hours. […] was used as loading control. E. TP0903 specifically reduces regulatory T cells (Treg). Effector T cells (Teff) were isolated by negative selection using RoboSep™ Human T Cell Isolation Kit (Stemcell Technologies). Tregs were isolated by negative selection using the human CD4^+CD127^lowCD25^+ Treg isolation kit (Stemcell Technologies). Teff and Treg were stimulated with anti-CD3/CD28 beads and 400 U/ml of IL-2. At day 5, total T cells were evaluated via CountBright quantification.

Another experiment has as its system JeKo. Briefly: MCL (JeKo) xenograft in NSG mice with re-challenge. The experiment is classed as in vivo. The protocol:
FIGS. 19A-F. A. Inhibitory receptors expression in naïve T cells after TCR activation with CD3 stimulation in the increasing dose of TP0903. Naïve T cells were incubated with anti CD3/CD28 beads at a 1 to 3 ratio in the presence of TP0903. At day 3, T cells were stained with PD-1, TIM-3, LAG-3, and ICOS. […] Teff cells were isolated by negative selection using Human T Cell Isolation Kit. Tregs were isolated by negative selection using the human CD4^+CD127^lowCD25^+ Treg isolation kit. Teff and Treg were stimulated with anti CD3/CD28 beads and 400 U/ml of IL-2. At day 5, total T cells were evaluated via CountBright quantification. C. CART19 cytokine assay in the presence TP0903. UTDs or CART19 were incubated with Jeko in the presence of TP-0903 at a 1 to 1 ratio. Supernatant was harvested and analyzed by 32-plex Luminex array after 3 days. D. Inhibitory receptors expression in CART19 cells in the presence TP0903. UTDs or CART19 were incubated with Jeko at a 1 to 1 E/T ratio in the presence of TP0903. At day 5, T cells were stained with PD-1 (left), LAG-3 (right), and TIM-3. E. CART19 cytotoxicity in the presence TP0903: CART19 or UTDs were co-cultured at different effector-to-target ratios (E:T) with luciferase-positive Jeko in the presence of increasing doses of TP0903. Cell killing was assessed by luminescence at 24 hours. F. TP0903 enhanced CART cell persistence in vivo. NSG mice were injected with 1.0×10^6 luciferase-positive JeKo on day −7. At day 0, mice were randomized according to tumor burden to receive vehicle, TP0903 20 mg/kg/day, […] CART19, or TP0903 20 mg/kg/day+0.5×10^6 CART19. At day 21, mice were re-challenged with JeKo.
FIG. 25A-E. Impact of the combinatory therapy in vivo. A. Schema for in vivo experiment. B and C. […] D. Reduction of MCP-1, which is known as CRS related cytokine in the presence of TP0903. E. Expansion of circulating CART19 after re-challenging Luciferase positive JeKo-1.
NOD-SCID-γ chain−/− (NSG) originally obtained from Jackson Laboratories were maintained in our laboratory under an IACUC approved breeding protocol. Schemas of the utilized xenograft models are discussed in detail in the relevant figures and the Results section. Cells were injected in 200 μL of phosphate-buffered saline at the indicated concentration into the tail veins of mice. Bioluminescent imaging was performed using a Xenogen IVIS-200 Spectrum camera. Images were acquired and analyzed using Living Image version 4.4 (Caliper LifeSciences, Inc., PerkinElmer).
To investigate the effect of AXL RTK inhibition of CART cells with TP0903 in vivo, MCL xenografts were established through the injection of 1.0×10^6 of JeKo into NSG mice. A week after the injection of JeKo, mice were treated with either vehicle alone, TP0903 (20 mg/kg/day) alone, 0.5×10^6 of CART19 alone, or TP0903 (20 mg/kg/day)+0.5×10^6 of CART19. Three weeks after the treatment, mice were rechallenged with 1.0×10^6 of JeKo.

As to `CN1CCN(Cc2ccc(Nc3ncc(Cl)c(Nc4ccccc4S(=O)(=O)N(C)C)n3)cc2)CC1` [TP0903], the “T cell expansion ex vivo and CART cell generation (CART19 and UTDs)” value with CART19 and UTDs is “enhanced”. In the experiment with Naïve T cells, the T cell expansion result is listed as “did not interfere”. In the experiment on JeKo (TP0903 20 mg/kg/day + 0.5×10^6 CART19, re-challenge at three weeks), the “outcome of JeKo re-challenge” value is “successfully rejected”. Also, the “CART cell persistence in vivo” value with JeKo (TP0903 20 mg/kg/day + CART19) is recorded as “enhanced”. Moreover, in the experiment with JeKo (combination of CART19 and TP0903 vs CART19 monotherapy), the tumor burden entry was “superior low tumor burden”. For the same molecule, the “circulating CART19” value with JeKo (combination, after re-challenging Luciferase positive JeKo-1) is “Expansion”. Moreover, the “MCP-1 (CRS related cytokine)” value in the experiment with JeKo (in vivo, in the presence of TP0903) is on record as “Reduction”.
